{
  "source": "paper PMC12388904",
  "about": "“Hypoglycemic Effects of Silphium perfoliatum L. In Vitro and In Vivo and Its Active Composition Identification by UPLC-Triple-TOF-MS/MS” (Pharmaceuticals, 2025)",
  "key": {"[1]": {"target": "sucrase (Rattus norvegicus, UniProt P23739)", "sequence (P23739 whole entry)": "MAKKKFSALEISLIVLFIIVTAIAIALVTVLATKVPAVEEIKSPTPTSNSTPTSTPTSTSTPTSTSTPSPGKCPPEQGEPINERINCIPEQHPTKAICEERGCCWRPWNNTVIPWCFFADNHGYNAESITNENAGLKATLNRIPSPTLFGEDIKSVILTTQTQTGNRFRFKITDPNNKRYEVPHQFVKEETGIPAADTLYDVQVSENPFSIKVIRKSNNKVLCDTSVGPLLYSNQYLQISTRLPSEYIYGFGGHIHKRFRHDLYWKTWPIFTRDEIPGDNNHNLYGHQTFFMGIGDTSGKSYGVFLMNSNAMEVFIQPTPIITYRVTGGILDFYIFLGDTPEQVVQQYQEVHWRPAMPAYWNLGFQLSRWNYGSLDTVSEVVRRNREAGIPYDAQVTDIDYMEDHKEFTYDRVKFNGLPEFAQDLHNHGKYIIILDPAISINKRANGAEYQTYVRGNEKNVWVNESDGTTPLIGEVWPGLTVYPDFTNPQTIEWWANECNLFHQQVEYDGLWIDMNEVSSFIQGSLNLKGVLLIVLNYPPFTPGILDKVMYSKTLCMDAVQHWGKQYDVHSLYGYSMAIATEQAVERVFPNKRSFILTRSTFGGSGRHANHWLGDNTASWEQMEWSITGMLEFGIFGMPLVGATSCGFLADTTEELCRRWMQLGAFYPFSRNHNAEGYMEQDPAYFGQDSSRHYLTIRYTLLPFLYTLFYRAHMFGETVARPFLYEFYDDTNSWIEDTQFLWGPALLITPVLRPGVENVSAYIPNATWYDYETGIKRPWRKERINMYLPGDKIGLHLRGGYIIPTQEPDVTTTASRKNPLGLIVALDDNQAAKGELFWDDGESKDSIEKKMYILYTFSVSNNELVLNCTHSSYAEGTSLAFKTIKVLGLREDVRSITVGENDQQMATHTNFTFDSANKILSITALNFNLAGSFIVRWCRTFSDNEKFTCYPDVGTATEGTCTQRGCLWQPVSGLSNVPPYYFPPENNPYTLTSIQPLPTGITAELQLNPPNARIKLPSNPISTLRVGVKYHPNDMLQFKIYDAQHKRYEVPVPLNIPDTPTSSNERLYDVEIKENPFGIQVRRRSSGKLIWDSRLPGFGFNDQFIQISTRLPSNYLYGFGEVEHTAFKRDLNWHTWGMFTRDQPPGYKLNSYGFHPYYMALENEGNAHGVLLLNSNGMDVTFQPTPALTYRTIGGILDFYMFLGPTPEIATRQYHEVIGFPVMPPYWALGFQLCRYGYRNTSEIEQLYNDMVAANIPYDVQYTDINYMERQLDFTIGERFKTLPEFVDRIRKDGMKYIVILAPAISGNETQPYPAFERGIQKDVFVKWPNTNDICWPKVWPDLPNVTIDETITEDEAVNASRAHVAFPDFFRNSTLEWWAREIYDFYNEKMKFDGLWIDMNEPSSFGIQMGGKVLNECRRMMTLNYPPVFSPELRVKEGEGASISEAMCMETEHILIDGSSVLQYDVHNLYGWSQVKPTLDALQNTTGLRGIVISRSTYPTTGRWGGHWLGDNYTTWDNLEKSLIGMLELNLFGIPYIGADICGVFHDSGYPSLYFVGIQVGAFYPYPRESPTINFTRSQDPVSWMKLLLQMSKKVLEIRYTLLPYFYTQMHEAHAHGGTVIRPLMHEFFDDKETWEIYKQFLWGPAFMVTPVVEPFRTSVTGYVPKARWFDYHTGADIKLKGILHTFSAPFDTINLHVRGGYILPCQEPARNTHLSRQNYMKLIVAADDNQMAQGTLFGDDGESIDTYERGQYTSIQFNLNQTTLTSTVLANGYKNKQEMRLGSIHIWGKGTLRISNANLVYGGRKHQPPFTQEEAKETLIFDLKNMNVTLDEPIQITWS", "test": "In vitro sucrase inhibition (rat intestinal mucosa α-glucosidase, glucose assay kit)", "description": "(§2) The α-Glucosidase preparation and inhibitory activity evaluation followed established laboratory protocols [41]. After overnight fasting, rats were humanely euthanized according to approved ethical guidelines. Small intestinal segments were immediately excised and placed on ice to preserve enzymatic activity. Following longitudinal dissection, the luminal surface was rinsed three times with pre-chilled PBS (0.1 M, pH 7.4), and mucosa was scraped using sterile slides. The mucosal tissue was subsequently dissolved in cold PBS (1:5 m/v), centrifuged (8000 rpm, 4 °C, 4 min), and the supernatant was snap-frozen in liquid nitrogen for storage at −80 °C.\n(§3) After shaking, 50 μL of maltase (11.32 U/mL) or sucrase (15.26 U/mL) was added and incubated at 37 °C for 20 min with oscillation. Reactions were terminated by heating at 95 °C for 15 min. Glucose production was quantified using a glucose assay kit, and IC50 values were calculated with GraphPad Prism 9.5.1."}, "[2]": {"target": "maltase", "test": "In vitro maltase inhibition (rat intestinal mucosa α-glucosidase, glucose assay kit)", "conditions": "for IC50 on maltase: Figure 4C, same IC50 in mass units, in brackets; for IC50: read-out: IC50 against maltase, Figure 4", "description": "as §2, §3"}, "[3]": {"test_system": "diabetic mice", "test": "Maltose tolerance test, PBG detection in alloxan-induced diabetic mice", "assay_type": "in vivo", "conditions": "maltose 3 g/kg oral, compared to model group", "method": "(§1) PBG detection in diabetic mice adhered to the protocol previously established by our group. After 12-h fasting, hyperglycemia was induced by tail vein injection of alloxan at a dose of 60 mg/kg. Fasting blood glucose was measured 72 h post-induction. Mice with blood glucose levels of 180–360 mg/dL were considered diabetic and randomized into five groups (n = 8/group): Model (sucrose 3 g/kg); […] SP-10 L (sucrose 3 g/kg + SP-10 5 mg/kg); SP-10 M (sucrose 3 g/kg + SP-10 10 mg/kg) and SP-10 H (sucrose 3 g/kg + SP-10 20 mg/kg). Blood glucose was measured pre-gavage and at 30, 60, and 120 min post-gavage. Data was recorded and analyzed for PBG and AUC using Graphpad Prism 9.5.1. Maltose and starch experiments used identical designs."}, "[4]": {"test_system": "diabetic mice", "test": "Sucrose tolerance test, PBG detection in alloxan-induced diabetic mice", "assay_type": "in vivo", "conditions": "sucrose 3 g/kg oral, acarbose 6 mg/kg", "method": "as §1"}, "[5]": {"test_system": "diabetic mice", "test": "Starch tolerance test, PBG detection in alloxan-induced diabetic mice", "assay_type": "in vivo", "conditions": "starch 3 g/kg oral, acarbose 6 mg/kg, compared to model group", "method": "as §1"}, "[6]": {"conditions": "IC50 against sucrase, Figure 4, sucrose 50 mmol/L, 37 °C, 20 min"}, "[7]": {"conditions": "IC50 on sucrase, Figure 4D, same IC50 in mass units, in brackets"}, "[8]": {"conditions": "maltose 1 mmol/L, 37 °C, 20 min"}, "[9]": {"conditions": "SP-10 10 and 20 mg/kg, compared to model group"}},
  "data": [
    {"compound": "O=C(C=Cc1ccc(O)c(O)c1)OC1C(O)CC(O)(C(=O)O)CC1O", "note": "(centres unmarked) [CCGA, cryptochlorogenic acid]", "values": [
      {"measurement": "IC50", "setting": "[1]; [6]", "value": 110, "unit": "µM"},
      {"measurement": "IC50", "setting": "[1]; [7]", "value": 110, "unit": "µM"},
      {"measurement": "IC50 on maltase", "setting": "[2]", "value": 38.47, "unit": "µg/mL"},
      {"measurement": "IC50", "setting": "[2]; [8]", "value": 109, "unit": "µM"}
    ]},
    {"compound": "O=C(/C=C/c1ccc(O)c(O)c1)O[C@@H]1C[C@](O)(C(=O)O)C[C@@H](O)[C@H]1O", "note": "[CGA, chlorogenic acid]", "values": [
      {"measurement": "IC50 against sucrase, fold higher relative to acarbose", "setting": "[1]", "value": 210, "unit": "fold"},
      {"measurement": "IC50", "setting": "[1]; [6]", "value": 126, "unit": "µM"},
      {"measurement": "IC50", "setting": "[1]; [7]", "value": 126, "unit": "µM"},
      {"measurement": "IC50 on maltase", "setting": "[2]", "value": 40.60, "unit": "µg/mL"},
      {"measurement": "IC50", "setting": "[2]; [8]", "value": 115, "unit": "µM"}
    ]},
    {"compound": "O=C(C=Cc1ccc(O)c(O)c1)OC1CC(O)(C(=O)O)CC(O)C1O", "note": "(centres unmarked) [NCGA, neochlorogenic acid]", "values": [
      {"measurement": "IC50 against sucrase, fold higher relative to acarbose", "setting": "[1]", "value": 215, "unit": "fold"},
      {"measurement": "IC50", "setting": "[1]; [6]", "value": 130, "unit": "µM"},
      {"measurement": "IC50", "setting": "[1]; [7]", "value": 129, "unit": "µM"},
      {"measurement": "IC50 on maltase", "setting": "[2]", "value": 31.07, "unit": "µg/mL"},
      {"measurement": "IC50", "setting": "[2]; [8]", "value": 87.7, "unit": "µM"}
    ]},
    {"compound": "C[C@H]1O[C@H](O[C@H]2[C@H](O)[C@@H](O)[C@@H](O[C@H]3[C@H](O)[C@@H](O)C(O)O[C@@H]3CO)O[C@@H]2CO)[C@H](O)[C@@H](O)[C@@H]1N[C@H]1C=C(CO)[C@@H](O)[C@H](O)[C@H]1O", "note": "(some centres unmarked) [acarbose, Acarbose]", "values": [
      {"measurement": "PBG levels at 30 and 60 min", "setting": "[3]; all three SP-10 groups (5, 10, 20 mg/kg), acarbose 6 mg/kg", "value": "lower PBG levels at 30 and 60 min, although these differences were not statistically significant"},
      {"measurement": "PBG levels at 120 min", "setting": "[3]; all treatment groups (SP-10 5, 10, 20 mg/kg, acarbose 6 mg/kg)", "value": "statistically significant reductions"},
      {"measurement": "Blood glucose AUC (0–120 min)", "setting": "[4]; [9]", "value": "significantly lower"},
      {"measurement": "PBG levels at 30 min", "setting": "[4]; [9]", "value": "significant attenuation"},
      {"measurement": "Glycemic levels by 120 min", "setting": "[4]; SP-10 H 20 mg/kg", "value": "restored glycemic levels to preprandial values"},
      {"measurement": "PBG levels at all measured time points", "setting": "[5]; SP-10 H 20 mg/kg", "value": "significantly reduced"},
      {"measurement": "AUC levels (0–120 min)", "setting": "[5]; SP-10 M 10 mg/kg and SP-10 H 20 mg/kg", "value": "markedly decreased"},
      {"measurement": "IC50 for maltase inhibition", "setting": "[2]; Figure 1, maltose 1 mmol/L, 37 °C, 20 min", "value": 0.168, "unit": "µg/mL"},
      {"measurement": "IC50", "setting": "[2]; [8]", "value": 0.26, "unit": "µM"}
    ]}
  ]
}
